Values of other authors as cited in US20040127531A1, “Adhesive coated sheet for dermal delivery of a selective cyclooxygenase-2 inhibitor” (priority 2002, published 2004).

How the values were obtained:
COX-2 = target: T1, COX-2 (Homo sapiens, UniProt P35354)
T1 sequence (P35354 18-604): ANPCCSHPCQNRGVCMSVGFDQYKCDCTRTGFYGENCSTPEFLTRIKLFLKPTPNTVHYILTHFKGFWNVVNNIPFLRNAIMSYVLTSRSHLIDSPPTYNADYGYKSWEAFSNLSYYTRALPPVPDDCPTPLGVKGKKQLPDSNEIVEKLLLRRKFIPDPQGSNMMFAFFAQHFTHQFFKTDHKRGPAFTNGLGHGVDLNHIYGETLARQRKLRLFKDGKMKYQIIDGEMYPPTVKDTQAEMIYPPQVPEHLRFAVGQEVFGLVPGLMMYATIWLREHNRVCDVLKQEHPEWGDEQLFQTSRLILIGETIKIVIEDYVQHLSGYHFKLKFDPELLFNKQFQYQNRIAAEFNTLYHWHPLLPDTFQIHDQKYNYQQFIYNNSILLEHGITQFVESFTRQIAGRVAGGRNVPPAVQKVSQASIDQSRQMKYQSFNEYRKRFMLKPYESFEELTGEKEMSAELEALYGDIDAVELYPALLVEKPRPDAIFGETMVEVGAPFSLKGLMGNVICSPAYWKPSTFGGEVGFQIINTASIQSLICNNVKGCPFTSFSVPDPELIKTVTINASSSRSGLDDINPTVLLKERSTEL

COX-1 = COX-1 (Homo sapiens, UniProt P23219)
COX-1, sequence (P23219 24-599): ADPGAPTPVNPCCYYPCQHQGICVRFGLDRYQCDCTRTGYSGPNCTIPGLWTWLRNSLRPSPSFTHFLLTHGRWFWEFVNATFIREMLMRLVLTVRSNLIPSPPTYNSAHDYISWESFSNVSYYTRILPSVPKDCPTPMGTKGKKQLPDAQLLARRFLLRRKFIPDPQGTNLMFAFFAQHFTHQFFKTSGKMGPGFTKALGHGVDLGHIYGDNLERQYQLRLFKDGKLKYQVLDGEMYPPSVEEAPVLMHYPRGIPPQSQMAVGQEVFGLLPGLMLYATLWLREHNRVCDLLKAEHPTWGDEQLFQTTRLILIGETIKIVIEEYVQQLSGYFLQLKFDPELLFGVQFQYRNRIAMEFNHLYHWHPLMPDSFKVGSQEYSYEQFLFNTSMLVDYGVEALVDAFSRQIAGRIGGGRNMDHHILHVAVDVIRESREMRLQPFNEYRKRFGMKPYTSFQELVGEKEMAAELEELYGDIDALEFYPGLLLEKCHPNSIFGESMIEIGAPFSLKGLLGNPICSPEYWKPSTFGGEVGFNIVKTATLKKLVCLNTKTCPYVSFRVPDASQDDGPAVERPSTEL

Row | in vitro inhibitory activity against COX-2 (COX-2) | SMILES | in vitro inhibitory activity against COX-1 (COX-1)
1 | weak | CCC(=O)NS(=O)(=O)c1ccc(-c2c(-c3ccccc3)noc2C)cc1 [Parecoxib, N-[[4-(5-methyl-3-phenylisoxazol-4-yl)phenyl]sulfonyl]propanamide] | weak
2 |  | Cc1onc(-c2ccccc2)c1-c1ccc(S(N)(=O)=O)cc1 [valdecoxib, 4-[5-methyl-3-phenylisoxazol-4-yl]benzenesulfonamide] | weak
